# Test results taken from patent US20190038714A1, “ANTI-INFLAMMATORY COMPOSITION COMPRISING CLAVASPIRIN PEPTIDE ANALOGUE AS EFFECTIVE INGREDIENT” (INDUSTRY-ACADEMIC COOPERATION FOUNDATION, CHOSUN UNIVERSITY, priority 2015, published 2019).
# Ends that are not written are not given here.
# Experiments:
# S. aureus MRSA 3126 = conditions: 24 hours at 37° C.
# S. aureus MRSA 5159 = conditions: 24 hours at 37° C.
# S. aureus MRSA 3-359 = conditions: 24 hours at 37° C.
# S. aureus MRSA 3518 = conditions: 24 hours at 37° C.
# S. aureus MRSA 2-122 = conditions: 24 hours at 37° C.
# [1] = test system: Escherichia coli, ATCC 25922; experiment: Growth minimum inhibitory concentration (MIC), microtiter broth dilution; assay type: cell-based; conditions: 12 hours at 37° C., pH of 5.5 or 7.4 (not given)
# Description: (§1) To compare the antimicrobial activity of the peptide produced by the method of Example 1, the inventors of the present invention measured the growth minimum inhibitory concentration (MIC), which is minimum concentration of the peptide showing no dissociation of bacterial cells.
# (§2) Specifically, E. coli (Escherichia coli, ATCC 25922), and P. aeruginosa (Pseudomonas aeruginosa, ATCC 15692), S. typhimurium (Salmonella typhimurium, KTCC 1926), and P. vulgaris (Proteus vulgaris, KCTC 2433 as Gram-negative bacteria, and S. aureus (Staphylococcus aureus, ATCC 25923), L. monocytogenes (Listeria monocytogenes, ATCC 19115), B. subtilis (Bacillus subtilis, KCTC 1918), and S. epidermidis (Staphylococcus epidermidis, KCTC 3096) as Gram-positive bacteria were used after obtaining them from American Type Culture Collection (ATCC) or Korean Cell Line Bank. Each bacterial cell line was cultured in LB medium (1% bacto tryptone, 0.5% bacto yeast extract, and 1% sodium chloride; Sigma, USA) to a mid-log phase at pH of 5.5 or 7.4. After that, the cells were diluted in 1% bacto peptone medium (Difco, USA) to have cell body concentration of 5×10^5 cells/100 μl, and then inoculated to a microtiter plate (NUNC, USA). Thereafter, each of CSP-4 peptide synthesized in Example 1 above and the mother peptide was diluted, 1/2 times for each, at pH of 5.5 or 7.4 in a 96-well plate. After adding the cells to the plate, the cells were cultured for 12 hours at 37° C. Then, the absorbance was measured at a wavelength of 620 nm by using a microtiter plate reader (Merck Elisa reader, Germany) to determine the MIC value of each bacterial strain.
# [2] = test system: Pseudomonas aeruginosa, ATCC 15692; experiment: as above; assay type: cell-based; conditions: P. aeruginosa; 12 hours at 37° C.
# Description: as §1, §2
# [3] = test system: Staphylococcus aureus, ATCC 25923; experiment: as above; assay type: cell-based; conditions: S. aureus; 12 hours at 37° C.
# Description: as §1, §2
# [4] = test system: Bacillus subtilis, KCTC 1918; experiment: as above; assay type: cell-based; conditions: B. subtilis; 12 hours at 37° C.
# Description: as §1, §2
# [5] = test system: Listeria monocytogenes, ATCC 19115; experiment: as above; assay type: cell-based; conditions: L. monocytogenes; 12 hours at 37° C.
# Description: as §1, §2
# [6] = test system: Proteus vulgaris, KCTC 2433; experiment: as above; assay type: cell-based; conditions: P. vulgaris; 12 hours at 37° C.
# Description: as §1, §2
# [7] = test system: Salmonella typhimurium, KTCC 1926; experiment: as above; assay type: cell-based; conditions: S. typhimurium; 12 hours at 37° C.
# Description: as §1, §2
# [8] = test system: Staphylococcus epidermidis, KCTC 3096; experiment: as above; assay type: cell-based; conditions: S. epidermidis; 12 hours at 37° C.
# Description: as §1, §2
# [9] = Cytotoxicity in normal cell line (MTT); assay type: cell-based, human; conditions: human, HaCaT cells (keratinocyte cell line), HaCaT, 24 hours, MTT, read-out: Cell survival ability %; for viability at 24 h, 25 µM: peptide 25 μM; for viability at 24 h, 50 µM: peptide 50 μM; for viability at 24 h, 100 µM: peptide 100 μM; for viability at 24 h, 200 µM: peptide 200 μM; for viability at 24 h, 400 µM: peptide 400 μM
# Description: To determine the cytotoxicity of the peptide produced by the method of Example 1 in normal cell line, toxicity was measured by using human keratinocyte forming cell line (HaCaT cell line, Dr. NE. Fusenig, Heidelberg, Germany).
# Specifically, HaCaT cells which have been cultured in DMEM medium containing 10% FBS (Fetal Bovine Serum) were aliquoted in a 96-well plate (3×10^3 cells/well). […] After the culture, a reaction solution containing 5 mg/ml MTT (Thiazolyl Blue Tetrazolium Bromide) dissolved in physiological saline (PBS) was added in an amount of 20 μl to each well and allowed to react for 4 hours. After that, the supernatant was removed, and, by dissolving the formed MTT crystals by adding 200 μl of DMSO, the absorbance at 560 nm was measured to determine the cell survival ability.
# S. aureus MRSA 1870 = conditions: 24 hours at 37° C.
# S. aureus = conditions: 24 hours at 37° C.
# S. aureus MRSA 4761 = conditions: 24 hours at 37° C.
# S. aureus MRSA 1635 = conditions: 24 hours at 37° C.
# S. aureus MRSA 0027 = conditions: 24 hours at 37° C.
# S. aureus MRSA 5156 = conditions: 24 hours at 37° C.
# S. aureus MRSA 5157 = conditions: 24 hours at 37° C.
# S. aureus MRSA 3511 = conditions: 24 hours at 37° C.
Substance,MIC (S. aureus MRSA 3126),MIC (S. aureus MRSA 5159),MIC (S. aureus MRSA 3-359),MIC (S. aureus MRSA 3518),MIC (S. aureus MRSA 2-122),Growth minimum inhibitory concentration [1],Growth minimum inhibitory concentration [2],Growth minimum inhibitory concentration [3],Growth minimum inhibitory concentration [4],Growth minimum inhibitory concentration [5],Growth minimum inhibitory concentration [6],Growth minimum inhibitory concentration [7],Growth minimum inhibitory concentration [8],"viability at 24 h, 25 µM [9]","viability at 24 h, 50 µM [9]","viability at 24 h, 100 µM [9]","viability at 24 h, 200 µM [9]","viability at 24 h, 400 µM [9]",MIC (S. aureus MRSA 1870),MIC (S. aureus),further results
FLRFIGSVIHGIGHLVHHIGVAL-NH2 [Clavaspirin],16 µM,32 µM,16 µM,8 µM,8 µM,2 µM,32 µM,16 µM,16 µM,16 µM,8 µM,32 µM,4 µM,15%,3%,1%,1%,0%,8 µM,16 µM,MIC (S. aureus MRSA 4761): 32 µM; MIC (S. aureus MRSA 1635): 16 µM; MIC (S. aureus MRSA 0027): 16 µM; MIC (S. aureus MRSA 5156): 8 µM; MIC (S. aureus MRSA 5157): 8 µM; MIC (S. aureus MRSA 3511): 8 µM
FLRFIGSVKHGKGHLVHHIGVAL-NH2 [CSP-4],8 µM,8 µM,8 µM,8 µM,8 µM,2 µM,32 µM,8 µM,4 µM,4 µM,4 µM,64 µM,4 µM,100%,100%,100%,100%,88%,8 µM,8 µM,MIC (S. aureus MRSA 4761): 8 µM; MIC (S. aureus MRSA 1635): 8 µM; MIC (S. aureus MRSA 0027): 8 µM; MIC (S. aureus MRSA 5156): 8 µM; MIC (S. aureus MRSA 5157): 8 µM; MIC (S. aureus MRSA 3511): 8 µM
